From ChEMBL document CHEMBL1158286, “Molluscicidal Triterpenoid Glycosides of Dialium guineense” (1996) come the findings set out here.

This assay relates to Biomphalaria glabrata. The experiment in a line: Molluscicidal activity against Biomphalaria glabrata assessed as minimum concentration required to cause mortality measured after 24 hrs. The assay is classed as functional.

On to `CC1(C)CC[C@]2(C(=O)O)CC[C@]3(C)C(=CC[C@@H]4[C@@]5(C)CC[C@H](O[C@@H]6O[C@H](C(=O)O)[C@@H](O)[C@H](O)[C@H]6O)C(C)(C)[C@@H]5CC[C@]43C)[C@@H]2C1`, for which the Activity is 2 ppm.
Then `C[C@@H]1O[C@@H](O[C@@H]2[C@@H](O)[C@H](O[C@H]3CC[C@]4(C)[C@H]5CC=C6[C@@H]7CC(C)(C)CC[C@]7(C(=O)O)CC[C@@]6(C)[C@]5(C)CC[C@H]4C3(C)C)O[C@H](C(=O)O)[C@H]2O)[C@H](O)[C@H](O)[C@H]1O`, with 4 ppm.
To `CC1(C)CC[C@]2(C(=O)O)CC[C@]3(C)C(=CC[C@@H]4[C@@]5(C)CC[C@H](O[C@@H]6O[C@H](C(=O)O)[C@@H](O)[C@H](O[C@@H]7OC[C@@H](O)[C@H](O)[C@H]7O)[C@H]6O)C(C)(C)[C@@H]5CC[C@]43C)[C@@H]2C1` belongs 4 ppm; to `CC1(C)CC[C@]2(C(=O)O)CC[C@]3(C)C(=CC[C@@H]4[C@@]5(C)CC[C@H](O[C@@H]6OC[C@@H](O)[C@H](O)[C@H]6O)C(C)(C)[C@@H]5CC[C@]43C)[C@@H]2C1`, greater than 16 ppm; to `CC1(C)CC[C@]2(C(=O)O)CC[C@]3(C)C(=CC[C@@H]4[C@@]5(C)CC[C@H](O)C(C)(C)[C@@H]5CC[C@]43C)[C@@H]2C1` [OLEANOLIC_ACID], 0 ppm.
